Each block holds one compound with its values, some of them ahead of it.
Tests used:
[1] = biological target: T1, H976Y HDAC4 gain of function mutant (Homo sapiens, UniProt P56524, H976Y); conditions: H976Y mutant compared with HDAC4; cited from earlier work
T1 sequence (P56524 1-1084 H976Y): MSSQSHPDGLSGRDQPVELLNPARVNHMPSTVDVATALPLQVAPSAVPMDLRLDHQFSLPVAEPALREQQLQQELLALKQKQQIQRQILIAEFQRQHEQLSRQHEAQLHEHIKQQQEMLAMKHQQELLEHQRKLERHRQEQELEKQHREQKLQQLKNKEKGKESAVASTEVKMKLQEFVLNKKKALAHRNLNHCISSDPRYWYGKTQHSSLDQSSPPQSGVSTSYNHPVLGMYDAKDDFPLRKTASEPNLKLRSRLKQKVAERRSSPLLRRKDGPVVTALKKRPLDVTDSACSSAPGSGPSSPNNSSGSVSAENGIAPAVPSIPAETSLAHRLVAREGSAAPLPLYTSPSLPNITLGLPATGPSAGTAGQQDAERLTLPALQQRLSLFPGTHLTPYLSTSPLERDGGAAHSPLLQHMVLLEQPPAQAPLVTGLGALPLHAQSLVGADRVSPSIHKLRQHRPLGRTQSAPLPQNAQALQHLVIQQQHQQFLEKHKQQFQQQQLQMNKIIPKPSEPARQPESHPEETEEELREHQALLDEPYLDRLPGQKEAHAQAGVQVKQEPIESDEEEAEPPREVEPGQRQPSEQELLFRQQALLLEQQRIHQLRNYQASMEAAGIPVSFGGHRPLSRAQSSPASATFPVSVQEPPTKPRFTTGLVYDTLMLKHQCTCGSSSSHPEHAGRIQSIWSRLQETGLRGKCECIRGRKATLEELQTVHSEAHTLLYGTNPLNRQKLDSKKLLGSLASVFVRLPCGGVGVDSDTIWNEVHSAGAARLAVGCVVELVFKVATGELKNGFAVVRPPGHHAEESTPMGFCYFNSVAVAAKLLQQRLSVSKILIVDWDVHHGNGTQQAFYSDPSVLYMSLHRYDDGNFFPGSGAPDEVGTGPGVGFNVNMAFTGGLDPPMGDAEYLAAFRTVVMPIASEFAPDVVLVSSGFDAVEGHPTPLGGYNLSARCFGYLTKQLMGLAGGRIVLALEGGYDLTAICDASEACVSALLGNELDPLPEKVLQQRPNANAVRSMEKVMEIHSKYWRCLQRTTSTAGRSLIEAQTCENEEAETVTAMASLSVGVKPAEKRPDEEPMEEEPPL

HDAC1-9 = assay: Biochemical HDAC assay, profiling against HDAC1-9; parameters: species or system human; conditions: dose-response, mean of three replicates
Method: The inhibitory effect of compounds on HDAC1-9 function was determined in vitro using an optimized homogenous assay performed in 384-well plate format. […] Reactions are performed in assay buffer (50 mM HEPES, 100 mM KCl, 0.001% Tween-20, 0.05% BSA, 200 μM TCEP, pH 7.4) and followed for fluorigenic release of 7-amino-4-methylcoumarin from substrate upon deacetylase and trypsin enzymatic activity. Fluorescence measurements are obtained approximately every five minutes using a multilabel plate reader and plate-stacker (Envision; Perkin-Elmer). Data are analyzed on a plate-by-plate basis for the linear range of fluorescence over time. The first derivative of data obtained from the plate capture corresponding to the mid-linear range is imported into analytical software and annotated with well identity and compound concentration (Spotfire DecisionSite). Replicate experimental data from incubations with inhibitor are normalized to control, solvent-only wells.
Data are analyzed by logistic regression with determination of IC50 and standard deviation (Spotfire DecisionSite and GraphPad Prism). Calculation of Ki is determined using a derivation of the standard formula Ki=[Inhibitor]/((VON;)*(1+S/Km))−[Substrate]/Km)−1. […]

Sirtuin2 = biological target: T2, Sirtuin2 (Homo sapiens, UniProt Q8IXJ6); assay: Sirtuin activity assay, Sirtuin2; format: biochemical; conditions: highest testing concentration
T2 sequence (Q8IXJ6 1-389): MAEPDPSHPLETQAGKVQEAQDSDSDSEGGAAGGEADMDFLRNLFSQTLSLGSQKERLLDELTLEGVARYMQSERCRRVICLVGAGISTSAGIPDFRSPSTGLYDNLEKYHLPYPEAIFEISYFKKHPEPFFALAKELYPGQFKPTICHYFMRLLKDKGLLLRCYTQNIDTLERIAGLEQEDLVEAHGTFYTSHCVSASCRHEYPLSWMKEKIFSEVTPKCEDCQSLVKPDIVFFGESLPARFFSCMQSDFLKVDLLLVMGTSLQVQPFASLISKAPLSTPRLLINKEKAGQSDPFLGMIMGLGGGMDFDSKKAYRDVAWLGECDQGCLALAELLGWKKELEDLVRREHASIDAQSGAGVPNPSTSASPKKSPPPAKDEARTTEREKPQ
Method: (§1) A series of compound dilutions (10 fold higher than final concentrations) are made in 10% DMSO in HDAC assay buffer. 5 μl of each dilution is added to 50 μl of the reaction mixture so that the final concentration of DMSO is 1% in all of reactions.
(§2) All of the enzymatic reactions were conducted in duplicate at room temperature for 3 hours in a 50 μl mixture containing HDAC assay buffer, 5 μg BSA, 100 μM NAD^+, 10 μM HDAC substrate 1, a sirtuin enzyme, and the test compound.
(§3) After enzymatic reactions, 50 μl of 2×HDAC Developer was added to each well and the plate was incubated at room temperature for an additional 20 minutes. Fluorescence intensity was measured at an excitation of 360 nm and an emission of 460 nm using a BioTek Synergy™ 2 microplate reader.
(§4) Sirtuin activity assays were performed in duplicates at each concentration. The fluorescent intensity data were analyzed using the computer software, Graphpad Prism. […] The percent activity in the presence of each compound was calculated according to the following equation: % activity=(F−Fb)/(Ft−Fb), where F=the fluorescent intensity in the presence of the compound, Fb=the fluorescent intensity in the absence of the sirtuin, and Ft=the fluorescent intensity in the absence of the compound. […]
(§5) If the IC50 value is not available, the % inhibition of the compound at the highest testing concentration was calculated.

Sirtuin3 = biological target: T3, Sirtuin3 (Homo sapiens, UniProt Q9NTG7); assay: Sirtuin activity assay, Sirtuin3; format: biochemical; conditions: highest testing concentration
T3 sequence (Q9NTG7 1-399): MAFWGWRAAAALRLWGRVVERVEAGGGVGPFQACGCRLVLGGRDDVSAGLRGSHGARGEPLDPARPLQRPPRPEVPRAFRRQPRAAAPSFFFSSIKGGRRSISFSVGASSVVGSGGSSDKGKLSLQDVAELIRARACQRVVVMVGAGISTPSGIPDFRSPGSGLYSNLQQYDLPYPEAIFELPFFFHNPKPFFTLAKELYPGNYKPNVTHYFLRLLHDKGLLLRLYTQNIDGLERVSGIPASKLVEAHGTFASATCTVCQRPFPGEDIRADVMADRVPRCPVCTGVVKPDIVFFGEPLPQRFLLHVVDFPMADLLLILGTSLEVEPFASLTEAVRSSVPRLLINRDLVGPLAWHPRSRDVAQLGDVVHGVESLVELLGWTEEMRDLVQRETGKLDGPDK
Method: as §1, §2, §3, §4, §5

Compound: O=C(/C=C/c1ccc(CN(CCO)CCc2c[nH]c3ccccc23)cc1)NO [LAQ-824]
increased affinity for the H976Y HDAC4 gain of function mutant [1]: 100 fold

Compound: O=C(CCCCCCC(=O)Nc1ccccc1)NO [SAHA]
inhibition of HDAC1-9, isoform selectivity profile (HDAC1-9): unexpected selectivity

inhibition at 100 µM (Sirtuin2): ~62%
inhibition at 100 µM (Sirtuin3): ~57%
Compound: O=C(/C=C/c1ccc(C(=O)N/N=C/c2ccc(O)c(O)c2O)cc1)NO [pandacostat, (E)-N-hydroxy-3-(4-((E)-2-(2,3,4-trihydroxybenzylidene) hydrazinecarbonyl)phenyl) acrylamide]

Compound: trichostatin A [TSA]
inhibition of HDAC1-9, isoform selectivity profile (HDAC1-9): unexpected selectivity
